This series in a line: physchem. In kind it is physicochemical. Conditions: organic solvent or mixture.

The structures appear in SMILES notation. Values after ≈ are worked out from the molar mass of the structure shown.

By solubility is commonly meant the dissolved amount per volume that the medium holds. With `CC1(C)CC=C(c2nc(C3CC(C)(C)OC(C)(C)C3)ccc2NC(=O)c2nc(C#N)c[nH]2)CC1` [Compound A, 4-cyano-N-[2-(4,4-dimethylcyclohex-1-en-1-yl)-6-(2,2,6,6-tetramethyltetrahydro-2H-pyran-4-yl)pyridin-3-yl]-1H-imidazole-2-carboxamide], the solubility is ~130 mg/mL (≈ 282 mM).

The values are drawn from patent publication US10858348B2, “Salt forms of 4-cyano-N-(4,4-dimethylcyclohex-1-en-1-yl)-6-(2,2,6,6-Tetr amethyltetrahydro-2H-pyran-4-yl)pyridin-3-yl)-1H-imidazole-2-carboximide” (Janssen Pharmaceutica NV, priority 2016, dated 2020).
